# Assay results as given in PMC7307883, “Targeting Cavity-Creating p53 Cancer Mutations with Small-Molecule Stabilizers: the Y220X Paradigm” (ACS Chemical Biology, 2020).
# Like-named read-outs stand apart in the source and are kept apart here.
# Columns and labels:
# [1] = target: T1, p53 Y220S mutant DBD (Homo sapiens, UniProt P04637, M133L/N239Y/N268D/V203A/Y220S); test: DSF thermal shift assay, Y220S mutant; assay type: binding; settings: 250 μM compound
# T1 construct: the mutant p53 DBD (residues 94–312) of interest; 6xHis (N, cleaved yes); lipoyl domain of dihydrolipoamide acetyltransferase (Bacillus stearothermophilus) (N, cleaved yes); made in house; host or cells: E. coli C41
# Procedure: (§1) Melting temperatures of the p53 mutants were determined by differential scanning fluorimetry (DSF) using the dye SYPRO Orange (Invitrogen), which quantitatively binds to hydrophobic protein patches that become exposed upon thermal unfolding. Real-time melt analyses were performed using either an Agilent MX3005P (heating rate of 270 K/h excitation/emission filters = 492/610 nm; Tables 2 and 4) or a Corbett Rotor-Gene 6000 real-time qPCR thermocycler (heating rate of 180 K/h, excitation/emission filters = 460/510 nm; Table 3). Tm measurements were performed with 8 μM p53 protein and 5–10 × SYPRO Orange (Life Technologies) in a 25 mM KPi (pH 7.2), 150 mM NaCl, and 1 mM TCEP assay buffer. For measurements of compound-induced Tm shifts (ΔTm), the assay buffer additionally contained 5% DMSO (v/v), with either 250 μM ligand or no ligand (control). ΔTm values were calculated as ΔTm = Tm (protein + compound) – Tm (protein). Native melting curves were measured in quadruplicate and compound-induced thermal shifts in triplicate or higher. Mean values ± SEM are given.
# [2] = target: T2, p53 Y220C mutant DBD (Homo sapiens, UniProt P04637, M133L/N239Y/N268D/V203A/Y220C); test: DSF thermal shift assay, Y220C mutant; assay type: binding; settings: 250 μM compound
# T2 construct: the mutant p53 DBD (residues 94–312) of interest; 6xHis (N, cleaved yes); lipoyl domain of dihydrolipoamide acetyltransferase (Bacillus stearothermophilus) (N, cleaved yes); made in house; host or cells: E. coli C41
# Procedure: as §1
# [3] = target: T3, p53 DBD WT (stabilized M133L/V203A/N239Y/N268D) (Homo sapiens, UniProt P04637, M133L/N239Y/N268D/V203A); test: DSF thermal shift assay, WT (stabilized quadruple mutant DBD); assay type: binding; settings: 250 μM compound, Agilent MX3005P, 270 K/h, triplicate, mean ± SEM (Table 4)
# T3 construct: the mutant p53 DBD (residues 94–312) of interest; 6xHis (N, cleaved yes); lipoyl domain of dihydrolipoamide acetyltransferase (Bacillus stearothermophilus) (N, cleaved yes); made in house; host or cells: E. coli C41
# Procedure: as §1
# [4] = target: T4, p53 Y220N mutant DBD (Homo sapiens, UniProt P04637, M133L/N239Y/N268D/V203A/Y220N); test: DSF thermal shift assay, Y220N mutant; assay type: binding; settings: 250 μM compound, Agilent MX3005P, 270 K/h, triplicate, mean ± SEM (Table 4)
# T4 construct: the mutant p53 DBD (residues 94–312) of interest; 6xHis (N, cleaved yes); lipoyl domain of dihydrolipoamide acetyltransferase (Bacillus stearothermophilus) (N, cleaved yes); made in house; host or cells: E. coli C41
# Procedure: as §1
# [5] = target: T5, p53 Y220H mutant DBD (Homo sapiens, UniProt P04637, M133L/N239Y/N268D/V203A/Y220H); test: DSF thermal shift assay, Y220H mutant; assay type: binding; settings: 250 μM compound, Agilent MX3005P, 270 K/h, triplicate, mean ± SEM (Table 4)
# T5 construct: the mutant p53 DBD (residues 94–312) of interest; 6xHis (N, cleaved yes); lipoyl domain of dihydrolipoamide acetyltransferase (Bacillus stearothermophilus) (N, cleaved yes); made in house; host or cells: E. coli C41
# Procedure: as §1
# [6] = target: T1, p53 Y220S mutant DBD; test: Isothermal titration calorimetry, Y220S mutant; assay type: binding; settings: for Kd: ITC, 20 °C, 25 mM KPi pH 7.2, 5% DMSO
# Procedure: (§2) Isothermal titration calorimetry (ITC) experiments for the Y220C and Y220S mutants were performed using a MicroCal (Amherst) iTC200 calorimeter as described.[14] Briefly, the cell unit contained 30–50 μM protein in a 25 mM KPi (pH 7.2), 150 mM NaCl, 1 mM TCEP, and 5% (v/v) DMSO assay buffer. The syringe contained 0.5–2 mM compound in the same buffer, using injection steps of 2 μL at a rate of 0.5 μL/s (initial injection: 0.5 μL) and 120 s spacing. […] Data analysis was performed using the MicroCal Origin software. ITC measurements for the Y220N mutant were carried out with the same buffers as above but using a Nano ITC microcalorimeter (TA Instruments) and injection steps of 8 μL, at a rate of 0.5 μL/s, and 200 s spacing. Data were processed using the NanoAnalyze software (Version 3.5.0) supplied with the instrument. All measurements were performed at 20 °C.
# [7] = target: T4, p53 Y220N mutant DBD; test: Isothermal titration calorimetry, Y220N mutant; assay type: binding; settings: ITC, Nano ITC, 20 °C
# Procedure: as §2
# [8] = target: T2, p53 Y220C mutant DBD; settings: ITC, cited from earlier work
# [9] = 8 μM protein, 5% DMSO, Rotor-Gene 6000, 180 K/h, quadruplicate, mean ± SEM (Table 3), read-out: Y220S mutant ΔTm
# [10] = 8 μM protein, 5% DMSO, Rotor-Gene 6000, 180 K/h, quadruplicate, mean ± SEM (Table 3), read-out: Y220C mutant ΔTm
# [11] = Agilent MX3005P, 270 K/h, triplicate, mean ± SEM (Table 4), read-out: ΔTm Y220S
# [12] = Agilent MX3005P, 270 K/h, triplicate, mean ± SEM (Table 4), read-out: ΔTm Y220C
smiles,measurement,setting,value
CCn1c2ccccc2c2cc(CNC)ccc21 [PK083],ΔTm at 250 µM,[1]; [9],0.7 ± 0.1 °C
same,ΔTm at 250 µM,[2]; [10],1 ± 0.1 °C
CNCc1ccc2c(c1)c1ccccc1n2CC(F)(F)F [PK9255],ΔTm at 250 µM,[1]; [9],3.2 °C
same,ΔTm at 250 µM,[1]; [11],3.2 °C
same,ΔTm at 250 µM,[2]; [10],1.7 ± 0.1 °C
same,ΔTm at 250 µM,[2]; [12],1.7 ± 0.1 °C
same,ΔTm at 250 µM,[3],0 °C
same,ΔTm at 250 µM,[4],1.4 ± 0.1 °C
same,ΔTm Y220H,[5],no significant stabilizing effect
same,ΔTm at 250 µM,[5],0.2 ± 0.1 °C
same,Kd,[6],16 ± 2 µM
same,Tighter binding to Y220S than to Y220C (ratio of Kd),[6]; Kd 16 μM (Y220S) vs 28 μM (Y220C),about 2 times
same,Kd,[7],40 µM
same,Kd,[8]; ref 14 (Bauer et al.),28 µM
CCn1c2ccc(CNC)cc2c2ccc(Br)cc21 [PK9284],ΔTm at 250 µM,[1]; [9],1.8 ± 0.1 °C
same,ΔTm at 250 µM,[2]; [10],2.4 ± 0.1 °C
same,Kd,[8]; ref 17 (Bauer et al.),14 ± 2 µM
CCn1c2ccc(CN(C)C)cc2c2ccc(Br)cc21 [PK9285],ΔTm at 250 µM,[1]; [11],2.1 ± 0.1 °C
same,ΔTm at 250 µM,[2]; [12],2 °C
same,ΔTm at 250 µM,[3],-0.2 ± 0.1 °C
same,ΔTm at 250 µM,[4],1.4 ± 0.1 °C
same,ΔTm at 250 µM,[5],0.2 °C
CCOc1ccc2c3cc(CNC)ccc3n(CC)c2c1 [PK9295],ΔTm at 250 µM,[1]; [9],0.9 °C
same,ΔTm at 250 µM,[2]; [10],1.2 ± 0.1 °C
same,Kd,[8]; ref 17 (Bauer et al.),62 ± 7 µM
"CNCc1ccc2c(c1)c1ccc(Br)cc1n2CC(F)(F)F [PK9301, 1-(7-Bromo-9-(2,2,2-trifluoroethyl)-9H-carbazol-3-yl)-N-methylmethanamine]",ΔTm at 250 µM,[1]; [9],> 5 °C
same,ΔTm at 250 µM,[2]; [10],3.5 ± 0.1 °C
same,Kd,[6],4 ± 1 µM
CCn1c2ccc(CNC)cc2c2ccc(-c3cccs3)cc21 [PK9318],ΔTm at 250 µM,[1]; [9],2.1 °C
same,ΔTm at 250 µM,[2]; [10],4.4 ± 0.1 °C
same,Kd,[8]; ref 17 (Bauer et al.),2.6 ± 0.4 µM
CCn1c2ccc(CNC)cc2c2ccc(-c3ccco3)cc21 [PK9320],ΔTm at 250 µM,[1]; [9],1.8 ± 0.1 °C
same,ΔTm at 250 µM,[2]; [10],3.4 °C
same,Kd,[8]; ref 17 (Bauer et al.),4.1 ± 0.2 µM
CCn1c2ccc(CNC)cc2c2ccc(-c3ccoc3)cc21 [PK9321],ΔTm at 250 µM,[1]; [11],2.1 ± 0.1 °C
same,ΔTm at 250 µM,[2]; [12],3.1 ± 0.1 °C
same,ΔTm at 250 µM,[3],0.2 ± 0.1 °C
same,ΔTm at 250 µM,[4],1.4 ± 0.1 °C
same,ΔTm at 250 µM,[5],0.7 ± 0.1 °C
CCn1c2ccc(CNC)cc2c2ccc(-c3nccs3)cc21 [PK9322],ΔTm at 250 µM,[1]; [9],3 °C
same,ΔTm at 250 µM,[2]; [10],3.4 °C
same,Kd,[8]; ref 17 (Bauer et al.),8.3 ± 2.6 µM
CCn1c2ccc(CNC)cc2c2ccc(-c3cscn3)cc21 [PK9323],ΔTm at 250 µM,[1]; [9],3.7 ± 0.3 °C
same,ΔTm at 250 µM,[1]; [11],3.7 ± 0.3 °C
same,ΔTm at 250 µM,[2]; [10],3.1 ± 0.1 °C
same,ΔTm at 250 µM,[2]; [12],3.1 ± 0.1 °C
same,ΔTm at 250 µM,[3],-0.4 ± 0.2 °C
same,ΔTm at 250 µM,[4],0.7 ± 0.1 °C
same,ΔTm at 250 µM,[5],-0.3 ± 0.1 °C
same,Kd,[6],5.9 ± 1.3 µM
same,Kd,[8]; ref 17 (Bauer et al.),5.3 ± 1.4 µM
CCn1c2ccc(CNC)cc2c2ccc(-c3ccc(C)s3)cc21 [PK9327],ΔTm at 250 µM,[1]; [9],1.2 °C
same,ΔTm at 250 µM,[2]; [10],3.7 ± 0.2 °C
CCn1c2ccc(CNC)cc2c2ccc(-c3cc(C)cs3)cc21 [PK9328],ΔTm at 250 µM,[1]; [9],1.5 ± 0.1 °C
same,ΔTm at 250 µM,[2]; [10],3.7 °C
CCn1c2ccc(CNC)cc2c2ccc(-c3sccc3C)cc21 [PK9331],ΔTm at 250 µM,[1]; [9],1.1 ± 0.1 °C
same,ΔTm at 250 µM,[2]; [10],2.1 ± 0.1 °C
CCn1c2ccc(CNC)cc2c2ccc(-c3cnoc3)cc21 [PK9424],ΔTm at 250 µM,[1]; [9],1.2 ± 0.1 °C
same,ΔTm at 250 µM,[2]; [10],2.3 ± 0.1 °C
